Measurements as given in patent US6355799B1, “Substituted benzene compounds, process for their preparation, and herbicidal and defoliant compositions containing them” (ISK Americas Incorporated, priority 1997, dated 2002).

Tests used:
Assay type in all cases: in vivo
[1] = tested on: redroot pigweed (Amaranthus retroflexus, AMARE); assay: Pre-emerge test, greenhouse herbicide activity screening; details: rated 14 days after application, 0 = no damage, 100 = complete death
Summary of the method: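 Visual ratings on a 0-100 scale (0 no damage, 100 all plants dead) were taken at 14 days after treatment. Rates of 15-1000 g ai/ha in acetone, 187 l/ha, were sprayed onto soil one day after planting (pre-emerge) or onto 2-3 leaf plants with 0.25% v/v surfactant (post-emerge).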

[2] = tested on: barnyardgrass (Echinochloa crus-galli, ECHCG); assay: as above; details: rated 14 days after application, 0 = no damage, 100 = complete death
Summary of the method: (§1)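 Sandy loam pots; pre-emerge: sown 1 d pre-spray, surface-watered after, then bottom-watered. Post-emerge: sown 8–21 d before, 2–3 leaf stage, + 0.25% v/v NIS, bottom-watered. Acetone, 187 l/ha track spray, 15–1000 g ai/ha. 0–100 injury score, day 14.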

[3] = tested on: common ragweed (Ambrosia artemisizfolia L., AMBEL); assay: as above; details: rated 14 days after application, 0 = no damage, 100 = complete death
Summary of the method: as §1

[4] = tested on: green foxtail (Setaria viridis, SETVI); assay: as above; details: rated 14 days after application, 0 = no damage, 100 = complete death
Summary of the method: as §1

[5] = tested on: ivyleaf morningglory (Ipomoea hederacea, IPOHE); assay: as above; details: rated 14 days after application, 0 = no damage, 100 = complete death
Summary of the method: as §1

[6] = tested on: johnsongrass (Sorghum halepense, SORHA); assay: as above; details: rated 14 days after application, 0 = no damage, 100 = complete death
Summary of the method: as §1

[7] = tested on: lambsquarters (Chenopodium album, CHEAL); assay: as above; details: rated 14 days after application, 0 = no damage, 100 = complete death
Summary of the method: as §1

[8] = tested on: large crabgrass (Digitaria sanguinalis, DIGSA); assay: as above; details: rated 14 days after application, 0 = no damage, 100 = complete death
Summary of the method: as §1

[9] = tested on: sicklepod (Cassia obtusifolia, CASOB); assay: as above; details: rated 14 days after application, 0 = no damage, 100 = complete death
Summary of the method: as §1

[10] = tested on: velvetleaf (Abutilon theophrasti, ABUTH); assay: as above; details: rated 14 days after application, 0 = no damage, 100 = complete death
Summary of the method: as §1

[11] = tested on: field corn (Zea mays L., var. Dekalb 535, CORN); assay: Pre-emerge test, crop safety; details: rated 14 days after application, 0 = no damage, 100 = complete death
Summary of the method: as §1

[12] = tested on: upland rice (Oryza sp., var. Tebonnet, RICE); assay: Pre-emerge test, crop safety; details: rated 14 days after application, 0 = no damage, 100 = complete death
Summary of the method: as §1

[13] = tested on: barnyardgrass (Echinochloa crus-galli, ECHCG); assay: Post-emerge test, greenhouse herbicide activity screening; details: post-emerge, 14 days after application, rating scale 0-100
Summary of the method: (§2)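 Plants grown in 10 cm pots of sandy loam mix received acetone-dissolved compounds through a moving flat-fan nozzle. Doses ranged from 15 to 1000 g ai/ha. Pre-emerge pots were seeded one day earlier, post-emerge pots 8–21 days earlier. Fourteen days on, each pot was graded 0–100 for damage.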

[14] = tested on: common ragweed (Ambrosia artemisizfolia L., AMBEL); assay: as above; details: post-emerge, 14 days after application, rating scale 0-100
Summary of the method: as §2

[15] = tested on: green foxtail (Setaria viridis, SETVI); assay: as above; details: post-emerge, 14 days after application, rating scale 0-100
Summary of the method: as §2

[16] = tested on: ivyleaf morningglory (Ipomoea hederacea, IPOHE); assay: as above; details: post-emerge, 14 days after application, rating scale 0-100
Summary of the method: as §2

[17] = tested on: johnsongrass (Sorghum halepense, SORHA); assay: as above; details: post-emerge, 14 days after application, rating scale 0-100
Summary of the method: as §2

[18] = tested on: lambsquarters (Chenopodium album, CHEAL); assay: as above; details: post-emerge, 14 days after application, rating scale 0-100
Summary of the method: as §2

[19] = tested on: large crabgrass (Digitaria sanguinalis, DIGSA); assay: as above; details: post-emerge, 14 days after application, rating scale 0-100
Summary of the method: as §2

[20] = tested on: redroot pigweed (Amaranthus retroflexus, AMARE); assay: as above; details: post-emerge, 14 days after application, rating scale 0-100
Summary of the method: as §2

[21] = tested on: sicklepod (Cassia obtusifolia, CASOB); assay: as above; details: post-emerge, 14 days after application, rating scale 0-100
Summary of the method: as §2

[22] = tested on: velvetleaf (Abutilon theophrasti, ABUTH); assay: as above; details: post-emerge, 14 days after application, rating scale 0-100
Summary of the method: as §2

[23] = tested on: field corn (Zea mays L., var. Dekalb 535, CORN); assay: Post-emerge test, crop safety; details: post-emerge, 14 days after application, rating scale 0-100
Summary of the method: as §1

[24] = tested on: upland rice (Oryza sp., var. Tebonnet, RICE); assay: Post-emerge test, crop safety; details: post-emerge, 14 days after application, rating scale 0-100
Summary of the method: as §1

COc1c(Cl)cc(F)c(-n2c(=O)cc(C(F)(F)F)n(C)c2=O)c1NC(=O)c1ccccc1Cl [2-53]
Pre-emerge Herbicidal Activity, phytotoxicity rating (0-100), AMARE ([1]; 63 g ai/ha): 100 | Pre-emerge Herbicidal Activity, phytotoxicity rating (0-100), AMARE ([1]; 250 g ai/ha): 100 | Pre-emerge Herbicidal Activity, phytotoxicity rating (0-100), ECHCG ([2]; 63 g ai/ha): 40 | Pre-emerge Herbicidal Activity, phytotoxicity rating (0-100), ECHCG ([2]; 250 g ai/ha): 99 | Pre-emerge Herbicidal Activity, phytotoxicity rating (0-100), AMBEL ([3]; 63 g ai/ha): 80 | Pre-emerge Herbicidal Activity, phytotoxicity rating (0-100), AMBEL ([3]; 250 g ai/ha): 100 | Pre-emerge Herbicidal Activity, phytotoxicity rating (0-100), SETVI ([4]; 63 g ai/ha): 100 | Pre-emerge Herbicidal Activity, phytotoxicity rating (0-100), SETVI ([4]; 250 g ai/ha): 100 | Pre-emerge Herbicidal Activity, phytotoxicity rating (0-100), IPOHE ([5]; 63 g ai/ha): 100 | Pre-emerge Herbicidal Activity, phytotoxicity rating (0-100), IPOHE ([5]; 250 g ai/ha): 100 | Pre-emerge Herbicidal Activity, phytotoxicity rating (0-100), SORHA ([6]; 63 g ai/ha): 40 | Pre-emerge Herbicidal Activity, phytotoxicity rating (0-100), SORHA ([6]; 250 g ai/ha): 100 | Pre-emerge Herbicidal Activity, phytotoxicity rating (0-100), CHEAL ([7]; 63 g ai/ha): 100 | Pre-emerge Herbicidal Activity, phytotoxicity rating (0-100), CHEAL ([7]; 250 g ai/ha): 100 | Pre-emerge Herbicidal Activity, phytotoxicity rating (0-100), DIGSA ([8]; 63 g ai/ha): 90 | Pre-emerge Herbicidal Activity, phytotoxicity rating (0-100), DIGSA ([8]; 250 g ai/ha): 100 | Pre-emerge Herbicidal Activity, phytotoxicity rating (0-100), CASOB ([9]; 63 g ai/ha): 95 | Pre-emerge Herbicidal Activity, phytotoxicity rating (0-100), CASOB ([9]; 250 g ai/ha): 100 | Pre-emerge Herbicidal Activity, phytotoxicity rating (0-100), ABUTH ([10]; 63 g ai/ha): 100 | Pre-emerge Herbicidal Activity, phytotoxicity rating (0-100), ABUTH ([10]; 250 g ai/ha): 100 | Pre-emerge phytotoxicity rating (0-100), crop damage, CORN ([11]; 63 g ai/ha): 25 | Pre-emerge phytotoxicity rating (0-100), crop damage, CORN ([11]; 250 g ai/ha): 90 | Pre-emerge phytotoxicity rating (0-100), crop damage, RICE ([12]; 63 g ai/ha): 80 | Pre-emerge phytotoxicity rating (0-100), crop damage, RICE ([12]; 250 g ai/ha): 90 | phytotoxicity rating ECHCG ([13]; 63 g ai/ha): 0 | phytotoxicity rating ECHCG ([13]; 250 g ai/ha): 70 | phytotoxicity rating AMBEL ([14]; 63 g ai/ha): 70 | phytotoxicity rating AMBEL ([14]; 250 g ai/ha): 90 | phytotoxicity rating SETVI ([15]; 63 g ai/ha): 20 | phytotoxicity rating SETVI ([15]; 250 g ai/ha): 40 | phytotoxicity rating IPOHE ([16]; 63 g ai/ha): 90 | phytotoxicity rating IPOHE ([16]; 250 g ai/ha): 100 | phytotoxicity rating SORHA ([17]; 63 g ai/ha): 0 | phytotoxicity rating SORHA ([17]; 250 g ai/ha): 50 | phytotoxicity rating CHEAL ([18]; 63 g ai/ha): 95 | phytotoxicity rating CHEAL ([18]; 250 g ai/ha): 100 | phytotoxicity rating DIGSA ([19]; 63 g ai/ha): 0 | phytotoxicity rating DIGSA ([19]; 250 g ai/ha): 20 | phytotoxicity rating AMARE ([20]; 63 g ai/ha): 90 | phytotoxicity rating AMARE ([20]; 250 g ai/ha): 100 | phytotoxicity rating CASOB ([21]; 63 g ai/ha): 70 | phytotoxicity rating CASOB ([21]; 250 g ai/ha): 100 | phytotoxicity rating ABUTH ([22]; 63 g ai/ha): 100 | phytotoxicity rating ABUTH ([22]; 250 g ai/ha): 100 | phytotoxicity rating CORN ([23]; 63 g ai/ha): 10 | phytotoxicity rating CORN ([23]; 250 g ai/ha): 70 | phytotoxicity rating RICE ([24]; 63 g ai/ha): 30 | phytotoxicity rating RICE ([24]; 250 g ai/ha): 70

COc1c(Cl)cc(F)c(-n2c(=O)cc(C(F)(F)F)n(C)c2=O)c1NC(=O)c1cccc(Cl)c1 [2-54]
Pre-emerge Herbicidal Activity, phytotoxicity rating (0-100), AMARE ([1]; 63 g ai/ha): 100 | Pre-emerge Herbicidal Activity, phytotoxicity rating (0-100), AMARE ([1]; 250 g ai/ha): 100 | Pre-emerge Herbicidal Activity, phytotoxicity rating (0-100), ECHCG ([2]; 63 g ai/ha): 90 | Pre-emerge Herbicidal Activity, phytotoxicity rating (0-100), ECHCG ([2]; 250 g ai/ha): 100 | Pre-emerge Herbicidal Activity, phytotoxicity rating (0-100), AMBEL ([3]; 63 g ai/ha): 100 | Pre-emerge Herbicidal Activity, phytotoxicity rating (0-100), AMBEL ([3]; 250 g ai/ha): 100 | Pre-emerge Herbicidal Activity, phytotoxicity rating (0-100), SETVI ([4]; 63 g ai/ha): 100 | Pre-emerge Herbicidal Activity, phytotoxicity rating (0-100), SETVI ([4]; 250 g ai/ha): 100 | Pre-emerge Herbicidal Activity, phytotoxicity rating (0-100), IPOHE ([5]; 63 g ai/ha): 85 | Pre-emerge Herbicidal Activity, phytotoxicity rating (0-100), IPOHE ([5]; 250 g ai/ha): 100 | Pre-emerge Herbicidal Activity, phytotoxicity rating (0-100), SORHA ([6]; 63 g ai/ha): 90 | Pre-emerge Herbicidal Activity, phytotoxicity rating (0-100), SORHA ([6]; 250 g ai/ha): 100 | Pre-emerge Herbicidal Activity, phytotoxicity rating (0-100), CHEAL ([7]; 63 g ai/ha): 100 | Pre-emerge Herbicidal Activity, phytotoxicity rating (0-100), CHEAL ([7]; 250 g ai/ha): 100 | Pre-emerge Herbicidal Activity, phytotoxicity rating (0-100), DIGSA ([8]; 63 g ai/ha): 100 | Pre-emerge Herbicidal Activity, phytotoxicity rating (0-100), DIGSA ([8]; 250 g ai/ha): 100 | Pre-emerge Herbicidal Activity, phytotoxicity rating (0-100), CASOB ([9]; 63 g ai/ha): 100 | Pre-emerge Herbicidal Activity, phytotoxicity rating (0-100), CASOB ([9]; 250 g ai/ha): 100 | Pre-emerge Herbicidal Activity, phytotoxicity rating (0-100), ABUTH ([10]; 63 g ai/ha): 100 | Pre-emerge Herbicidal Activity, phytotoxicity rating (0-100), ABUTH ([10]; 250 g ai/ha): 100 | Pre-emerge phytotoxicity rating (0-100), crop damage, CORN ([11]; 63 g ai/ha): 90 | Pre-emerge phytotoxicity rating (0-100), crop damage, CORN ([11]; 250 g ai/ha): 98 | Pre-emerge phytotoxicity rating (0-100), crop damage, RICE ([12]; 63 g ai/ha): 70 | Pre-emerge phytotoxicity rating (0-100), crop damage, RICE ([12]; 250 g ai/ha): 90 | phytotoxicity rating ECHCG ([13]; 63 g ai/ha): 20 | phytotoxicity rating ECHCG ([13]; 250 g ai/ha): 90 | phytotoxicity rating AMBEL ([14]; 63 g ai/ha): 90 | phytotoxicity rating AMBEL ([14]; 250 g ai/ha): 100 | phytotoxicity rating SETVI ([15]; 63 g ai/ha): 10 | phytotoxicity rating SETVI ([15]; 250 g ai/ha): 50 | phytotoxicity rating IPOHE ([16]; 63 g ai/ha): 100 | phytotoxicity rating IPOHE ([16]; 250 g ai/ha): 100 | phytotoxicity rating SORHA ([17]; 63 g ai/ha): 50 | phytotoxicity rating SORHA ([17]; 250 g ai/ha): 80 | phytotoxicity rating CHEAL ([18]; 63 g ai/ha): 100 | phytotoxicity rating CHEAL ([18]; 250 g ai/ha): 100 | phytotoxicity rating DIGSA ([19]; 63 g ai/ha): 10 | phytotoxicity rating DIGSA ([19]; 250 g ai/ha): 20 | phytotoxicity rating AMARE ([20]; 63 g ai/ha): 100 | phytotoxicity rating AMARE ([20]; 250 g ai/ha): 100 | phytotoxicity rating CASOB ([21]; 63 g ai/ha): 90 | phytotoxicity rating CASOB ([21]; 250 g ai/ha): 100 | phytotoxicity rating ABUTH ([22]; 63 g ai/ha): 100 | phytotoxicity rating ABUTH ([22]; 250 g ai/ha): 100 | phytotoxicity rating CORN ([23]; 63 g ai/ha): 80 | phytotoxicity rating CORN ([23]; 250 g ai/ha): 80 | phytotoxicity rating RICE ([24]; 63 g ai/ha): 90 | phytotoxicity rating RICE ([24]; 250 g ai/ha): 95
